Data as given in PubChem BioAssay AID2060357 (Molecular Pharmacology Branch, DTP, NCI, 2025).

System: 292921-168-R-J2-PDC spheroids with HUVEC/MSC, viability
Assay: Anticancer human tumor 292921-168-R-J2-PDC patient-derived pancreatic carcinoma cell line growth inhibition [TAK]
Conditions: for IC50: curve of first compound; for viability, T/C: stronger effect = lower value
Source text: Combinatorial screen of targeted agents with TAK-243 and ipatasertib in multi-cell type tumor spheroids
A high-throughput screen of multi-cell type tumor spheroids was designed to identify active combinations of targeted small molecules and TAK-243 or ipatasertib. Complex spheroids include a stromal component modeled by human endothelial cells (HUVEC) and fibroblasts modeled by human mesenchymal stem cells (MSCs). The concentration ranges selected for each drug and investigational agent were based upon clinically achievable concentrations if the clinical Cmax of the agent was known.
Compounds. The drugs and investigational agents: TAK-243 (785004), ipatasertib (767898), everolimus (733504), selumetinib (741078), bortezomib (756655), trametinib (758246), ixazomib (758254), vemurafenib (761431), dabrafenib (764134), sapanisertib (764658), alpelisib (765974), and copanlisib (816437), were obtained from the National Cancer Institute (NCI) Developmental Therapeutics Program Chemical Repository. The FDA-approved anticancer drug set is available from the NCI Developmental Therapeutics Program. […] The stock solutions were prepared in dimethyl sulfoxide (DMSO, Sigma-Aldrich, St. Louis, MO, cat. D2650) at 800-fold the tested concentration and stored at -70 degrees C prior to their use. All drugs and investigational agents were tested over a range starting from a high concentration at or near the clinical Cmax and decreasing in half-log increments. If the clinical Cmax for an agent had not been determined, the highest concentration tested was 10 microM.
NCI60 Cell Culture. NCI60 cell lines were obtained from the NCI Developmental Therapeutics Program Tumor Repository. For each lot of cells, the Repository performed Applied Biosystems AmpFLSTR Identifiler testing with PCR amplification to confirm consistency with the published Identifier STR profile for each cell line. Cells were kept in continuous culture for no more than 20 passages. The optimal seeding densities for each of the cell lines at each time point assessed were determined prior to performing the concentration response studies. Briefly, the NCI60 human tumor lines were grown as monolayers in RPMI 1640 medium supplemented with 10% FBS and 2 mmol/L L-glutamine.
An additional 2 lines were from the NCI60 cell line panel including melanomas, MALME-3M and SK-MEL-2. Pooled donor human umbilical vein endothelial cells (HUVEC, Lonza, cat. CC-2519) and human mesenchymal stem cells (hMSC, Lonza, cat. PT-2501) were purchased from Lonza (Walkersville, MD).
PDMR cell lines were grown in complete medium (DC medium): Dulbecco's modified Eagle's medium (DMEM)/F12 supplemented with 5% fetal bovine serum (FBS), 2 mM L-glutamine, 100 U/mL penicillin and 100 µg/ml streptomycin, 0.4 µg/ml hydrocortisone, 10 ng/ml epidermal growth factor (EGF) recombinant human protein, 24 µg/mL adenine, and 0.1 mg/mL primocin. During culture from frozen stock vials, PDMR cells were cultured in the same medium containing 10 µM Y-27632 (see Table 3). The PDCs were cultured in complete DMEM/F12 media without 10 microM Y-27632 dihydrochloride for at least two passages prior to the screen. The pooled donor HUVEC and hMSC were cultured in endothelial cell growth medium 2 (PromoCell, Heidelberg, Germany, cat. C-22011) and mesenchymal stem cell growth medium 2 (PromoCell, cat. C-28009), respectively. For all experiments, HUVEC and hMSC were used at passages </=5.
For the pre-screen, cell seeding densities were determined from a titration spanning the range from 5,000 to 313 cells per well. The mct-spheroids including 60% malignant cells, 25% HUVEC and 15% MSC dispensed as a mixture into U-bottom Ultra-Low Attachment 384-well plates (Corning, NY)
High-throughput Drug Combination Screening.
Prior to their inoculation into 384-well plates, malignant cells, HUVEC, and hMSC were removed from T flasks using TrypLE express (Thermo Fisher Scientific, cat. 12605036) and harvested by centrifugation for 5 min at 233 x g. […]
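Also: spheroids exposed to drugs for seven days before readout.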

What does the source list for `CC(=O)Nc1cccc(-n2c(=O)n(C3CC3)c(=O)c3c(Nc4ccc(I)cc4F)n(C)c(=O)c(C)c32)c1` + CC(C)NCC(C(=O)N1CCN(c2ncnc3c2C(C)CC3O)CC1)c1ccc(Cl)cc1?
IC50 (second compound 0.3 µM): 0.45 nM; IC50 (second compound 0.949 µM): 0.337 nM; IC50 (second compound 3 µM): 0.209 nM; IC50 (second compound 9.49 µM): 0.11 nM; IC50 (second compound 30 µM): < 0.0949 nM; viability, T/C (second compound 0.3 µM, first compound 94.9 pM): 74.9%; viability, T/C (second compound 0.3 µM, first compound 0.0003 µM): 59.5%; viability, T/C (second compound 0.3 µM, first compound 0.000949 µM): 32.6%; viability, T/C (second compound 0.3 µM, first compound 0.003 µM): 25.7%; viability, T/C (second compound 0.3 µM, first compound 0.00949 µM): 19.8%; viability, T/C (second compound 0.3 µM, first compound 0.03 µM): 13.9%; viability, T/C (second compound 0.949 µM, first compound 94.9 pM): 70.5%; viability, T/C (second compound 0.949 µM, first compound 0.0003 µM): 51.8%; viability, T/C (second compound 0.949 µM, first compound 0.000949 µM): 35.6%; viability, T/C (second compound 0.949 µM, first compound 0.003 µM): 26.6%; viability, T/C (second compound 0.949 µM, first compound 0.00949 µM): 17.8%; viability, T/C (second compound 0.949 µM, first compound 0.03 µM): 13.1%; viability, T/C (second compound 3 µM, first compound 94.9 pM): 63.8%; viability, T/C (second compound 3 µM, first compound 0.0003 µM): 44%; viability, T/C (second compound 3 µM, first compound 0.000949 µM): 28.8%; viability, T/C (second compound 3 µM, first compound 0.003 µM): 22.5%; viability, T/C (second compound 3 µM, first compound 0.00949 µM): 16.6%; viability, T/C (second compound 3 µM, first compound 0.03 µM): 12.3%; viability, T/C (second compound 9.49 µM, first compound 94.9 pM): 51.4%; viability, T/C (second compound 9.49 µM, first compound 0.0003 µM): 39%; viability, T/C (second compound 9.49 µM, first compound 0.000949 µM): 25.4%; viability, T/C (second compound 9.49 µM, first compound 0.003 µM): 18.8%; viability, T/C (second compound 9.49 µM, first compound 0.00949 µM): 14.3%; viability, T/C (second compound 9.49 µM, first compound 0.03 µM): 10.7%; viability, T/C (second compound 30 µM, first compound 94.9 pM): 34.9%; viability, T/C (second compound 30 µM, first compound 0.0003 µM): 26.6%; viability, T/C (second compound 30 µM, first compound 0.000949 µM): 20.3%; viability, T/C (second compound 30 µM, first compound 0.003 µM): 16%; viability, T/C (second compound 30 µM, first compound 0.00949 µM): 12.2%; viability, T/C (second compound 30 µM, first compound 0.03 µM): 9.91%

Which results are given for `CC(C)CC(NC(=O)C(Cc1ccccc1)NC(=O)c1cnccn1)B(O)O` (stereo not given) + CC(C)NCC(C(=O)N1CCN(c2ncnc3c2C(C)CC3O)CC1)c1ccc(Cl)cc1?
IC50 (second compound 0.3 µM): 4.58 nM; IC50 (second compound 0.949 µM): 4.11 nM; IC50 (second compound 3 µM): 4.07 nM; IC50 (second compound 9.49 µM): 3.99 nM; IC50 (second compound 30 µM): < 0.0316 nM; viability, T/C (second compound 0.3 µM, first compound 31.6 pM): 83.7%; viability, T/C (second compound 0.3 µM, first compound 0.0001 µM): 86.5%; viability, T/C (second compound 0.3 µM, first compound 0.000316 µM): 88.6%; viability, T/C (second compound 0.3 µM, first compound 0.001 µM): 89.3%; viability, T/C (second compound 0.3 µM, first compound 0.00316 µM): 69%; viability, T/C (second compound 0.3 µM, first compound 0.01 µM): 9.99%; viability, T/C (second compound 0.949 µM, first compound 31.6 pM): 80.2%; viability, T/C (second compound 0.949 µM, first compound 0.0001 µM): 81.7%; viability, T/C (second compound 0.949 µM, first compound 0.000316 µM): 83.5%; viability, T/C (second compound 0.949 µM, first compound 0.001 µM): 80.9%; viability, T/C (second compound 0.949 µM, first compound 0.00316 µM): 62.9%; viability, T/C (second compound 0.949 µM, first compound 0.01 µM): 6.56%; viability, T/C (second compound 3 µM, first compound 31.6 pM): 73.9%; viability, T/C (second compound 3 µM, first compound 0.0001 µM): 76.1%; viability, T/C (second compound 3 µM, first compound 0.000316 µM): 72.6%; viability, T/C (second compound 3 µM, first compound 0.001 µM): 78.6%; viability, T/C (second compound 3 µM, first compound 0.00316 µM): 62.1%; viability, T/C (second compound 3 µM, first compound 0.01 µM): 6.46%; viability, T/C (second compound 9.49 µM, first compound 31.6 pM): 64.1%; viability, T/C (second compound 9.49 µM, first compound 0.0001 µM): 63%; viability, T/C (second compound 9.49 µM, first compound 0.000316 µM): 58.7%; viability, T/C (second compound 9.49 µM, first compound 0.001 µM): 58.5%; viability, T/C (second compound 9.49 µM, first compound 0.00316 µM): 62.8%; viability, T/C (second compound 9.49 µM, first compound 0.01 µM): 4.62%; viability, T/C (second compound 30 µM, first compound 31.6 pM): 41.7%; viability, T/C (second compound 30 µM, first compound 0.0001 µM): 40.5%; viability, T/C (second compound 30 µM, first compound 0.000316 µM): 41.3%; viability, T/C (second compound 30 µM, first compound 0.001 µM): 42.8%; viability, T/C (second compound 30 µM, first compound 0.00316 µM): 38.7%; viability, T/C (second compound 30 µM, first compound 0.01 µM): 6.44%
